From patent publication US11219670B2, “Targeting CAPN9/CAPNS2 activity as a therapeutic strategy for the treatment of myofibroblast differentiation and associated pathologies” (The Johns Hopkins University, priority 2014, dated 2022)
Where a SMILES comes first, the peptide text is derived from it. The star is where a group is joined. Cbz = O=C(OCc1ccccc1)*

Assays:
[1] = target: T1, Human recombinant mini-CAPN9 (Homo sapiens, UniProt O14815); assay: Biochemical assay for calpain 9 inhibition (FRET peptide substrate, FLIPR); settings: IC50 by 4 parameter logistic fitting; 10 min preincubation; ambient temperature
T1 construct: made in house; host or cells: E. coli
T1 sequence (O14815 42-337 limits assumed): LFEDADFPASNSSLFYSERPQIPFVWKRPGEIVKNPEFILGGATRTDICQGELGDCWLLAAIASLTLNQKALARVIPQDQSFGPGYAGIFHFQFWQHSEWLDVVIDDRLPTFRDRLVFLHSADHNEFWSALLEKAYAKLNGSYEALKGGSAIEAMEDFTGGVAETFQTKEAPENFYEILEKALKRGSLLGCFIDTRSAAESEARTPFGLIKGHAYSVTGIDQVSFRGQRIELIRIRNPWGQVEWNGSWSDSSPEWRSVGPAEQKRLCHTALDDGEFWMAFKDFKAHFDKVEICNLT
Procedure: Human recombinant mini-CAPN9 was expressed in E. coli and purified as described in Davis, T. L., et al. (2007) J Mol Biol 366(1): 216-229.
All enzyme reactions are run at ambient temperature (˜25° C.) in black 384 well assay plates. Inhibitors solutions in DMSO are typically semi-log serially diluted prior to further dilution in assay buffer (Tris-HCl 20 mM, KCl 100 mM, BSA 0.1%, 1 mM DTT). Calpain enzyme stocks are diluted in assay buffer without Ca (II) just prior to use (1 μM) and incubated with serially diluted test compounds at 2× concentrations in the assay plate for 10 min.
After the compound preincubation, the FLIPR liquid handler is used to initiate the reaction by adding a 2× mix of substrate (1 μM Calpain FRET peptide substrate (5-FAM/QXL 520) Anaspec (Catalog# AS-72149)) and Ca (II) (10 mM). Reactions are measured using a FLIPR Tetra reader (Molecular Devices Inc).
Slopes (reaction rates) are calculated within the 0-2 min interval using the ScreenWorks software (Molecular Devices Inc). Slopes are plotted versus test compound concentration to obtain dose-response curves. IC50 values are obtained using 4 parameter logistic fitting.

[2] = test system: NMuMG cells; assay: Reversal of pre-established TGFβ-induced myofibroblast differentiation in NMuMG cells (mesenchymal-to-epithelial transition); type: cell-based, Mouse; settings: NMuMG pretreated with TGFβ 72 h, 48 h and 72 h post-induction
Procedure: (§1) (FIG. 1B; Levels were normalized to the 72 h TGFβ1 only treated sample for each blot. Students t-test *p<0.05, **p<0.01, † p<0.005, †† p<0.001). […] (FIG. 1H; Levels were normalized to the 72 h TGFβ1 only treated sample for each blot. Students t-test *p<0.05, **p<0.01, † p<0.005, †† p<0.001). FIG. 1G and FIG. 1H show the small molecule […] SB431542 suppressed TGFβ-induced calpain activity (as measured by cleavage of Filamin A, a known calpain substrate) and TGFβ-induced phosphorylation of SMAD2, as measured by western blot (FIG. 1H) and quantified western blot data done in biological replicates (FIG. 1H; Levels were normalized to the 72 h TGFβ1 only treated sample for each blot. Student's t-test *p<0.05, **p<0.01, † p<0.005, †† p<0.001).). […] NMuMG cells pretreated with TGFβ1 for 72 hours to induce EMT, and then treated with calpain inhibitor MDL-28170 while in the continued presence of TGFβ1 for an additional 48 h or 72 h post-induction, can revert to a more epithelial phenotype as assessed by αSMA expression by western blot (FIG. 1I) and quantified western blot data done in biological replicates (FIG. 1J; Levels were normalized to TGFβ1 only treated samples within each time point. Students t-test *p<0.05).
If TGFβ-induced calpain activity is necessary to maintain myofibroblast differentiation, suppression of calpain activity after pre-establishment of myofibroblast differentiation should be sufficient for mesenchymal-to-epithelial transition and provide evidence supporting reversal of a disease state.

[3] = test system: calpain activity (cleavage of Filamin A); assay: TGFβ-induced calpain activity in NMuMG cells (cleavage of Filamin A, western blot); type: cell-based, Mouse
Procedure: (§2) (FIG. 1B; Levels were normalized to the 72 h TGFβ1 only treated sample for each blot. Students t-test *p<0.05, **p<0.01, † p<0.005, †† p<0.001). […] (FIG. 1H; Levels were normalized to the 72 h TGFβ1 only treated sample for each blot. Students t-test *p<0.05, **p<0.01, † p<0.005, †† p<0.001).

[4] = test system: MDCK cells; assay: TGFβ-induced EpMT in MDCK cells (αSMA western blot); type: cell-based, Canine
[5] = test system: NMuMG cells; assay: TGFβ1-induced EpMT in NMuMG cells (αSMA western blot, qPCR, immunofluorescence); type: cell-based, Mouse
Procedure: as §1
Calpain inhibition was also found to suppress TGFβ-induced expression of genes commonly and functionally associated with fibrosis, such as collagen 1A1, vimentin and matrix metalloproteinase 2/9 (FIG. 1C). A profound decrease in E-cadherin, a cell surface protein highly expressed by epithelial cells, was observed by immunofluorescence upon stimulation with TGFβ but was prevented by treatment with calpain inhibitor MDL-28170 (FIG. 1D). […] (FIG. 1F). […]

[6] = test system: phosphorylation of SMAD2; assay: TGFβ-induced phosphorylation of SMAD2 in NMuMG cells (western blot); type: cell-based, Mouse
Procedure: as §2

[7] = test system: Primary Normal Human Lung Fibroblasts (NHLF); assay: TGFβ1-induced FMT in NHLF cells (αSMA western blot); type: cell-based
Excerpt: Resident fibroblasts have also been described to undergo transformation in the presence of high TGFβ. Using Primary Normal Human Lung Fibroblasts (NHLF), it was shown that treatment with calpain inhibitor MDL-28170 (FIG. 8A and FIG. 8B) or siRNA mediated knockdown of CAPNS2 (FIG. 8C) can inhibit TGFβ1-induced FMT as measured by αSMA.

**Q.** For CC(C)[C@H](NC(=O)OCc1ccccc1)C(=O)N[C@H](C=O)Cc1ccccc1 [MDL-28170] (Cbz-Val-Phe-aldehyde), which IC50 [1] is on record?
**A.** 1.61 µM

**Q.** What about the “E-cadherin expression after pre-established myofibroblast differentiation” value [2] of the same molecule?
**A.** reacquired expression of the epithelial marker E-cadherin

**Q.** What about the “actin cytoskeleton organisation after pre-established myofibroblast differentiation” value [2] of the same molecule?
**A.** reorganized their actin cytoskeleton from stress fibers to cortical actin

**Q.** And the “αSMA expression after pre-established myofibroblast differentiation” value ([2]; continued TGFβ1)?
**A.** decreased expression of αSMA

**Q.** And the “TGFβ-induced calpain activity (cleavage of Filamin A)” value [3]?
**A.** suppressed

**Q.** And the “TGFβ-induced EpMT as measured from αSMA expression” value [4]?
**A.** suppresses TGFβ-induced EpMT in MDCK cells

**Q.** What about the “TGFβ1-induced reorganization of the actin cytoskeleton to stress fibers” value ([5]; immunofluorescence) of the same molecule?
**A.** blocked

**Q.** And the “TGFβ-induced decrease in E-cadherin” value ([5]; immunofluorescence)?
**A.** prevented

**Q.** What about the “TGFβ-induced expression of genes associated with myofibroblast differentiation and/or fibrosis (Col1A1, Vimentin, MMP2, MMP9)” value ([5]; quantitative PCR) of the same molecule?
**A.** suppresses

**Q.** What about the “TGFβ1-induced EpMT as measured by αSMA expression” value ([5]; western blot) of the same molecule?
**A.** antagonize TGFβ1-induced EpMT

**Q.** And the “TGFβ-induced phosphorylation of SMAD2” value [6]?
**A.** without significantly affecting

**Q.** And the “TGFβ1-induced FMT as measured by αSMA” value [7]?
**A.** can inhibit
